Data on 4 compounds can be found in article PMC11201866, “Antiproliferative effect of indeno[1,2-d]thiazolo[3,2-a]pyrimidine analogues on IL-6 mediated STAT3 and role of the apoptotic pathway in albino Wistar rats of ethyl carbamate-induced lung carcinoma: In-silico, In-vitro, and In-vivo study” (Cancer Cell International, 2024).

Each structure is given as a SMILES string. Where two headings read alike, the source gives them in different places.

Series [1] relates to Human Lung Cancer Cell Line A-549. Put plainly: In-vitro cell cytotoxicity (SRB) assay. The format is cell-based. How it is done: To determine the cytotoxicity potential of the synthesized compounds. All samples were sent to the ACTREC, Tata Memorial Centre, Mumbai, India. They followed the standard protocol for sample analysis of the synthesized compounds. Adriamycin (ADR) was selected as a standard at 10, 20, 40, and 80 µg/mL to screen for indeno [1, 2-d] thiazolo [3,2-a] pyrimidine analogues. GI50 growth inhibition of 50% was calculated using the [(Ti − Tz)/(C − Tz)] ×100% formula, where C, controlled growth; Tz, time zero growth; and Ti, test growth at four concentration levels in the presence of the drug.
LC50 = Concentration of drug causing 50% cell kill
TGI = Concentration of drug causing total inhibition of cell growth
GI50 = Concentration of drug causing 50% inhibition of cell growth

In series [2] the test system is ethyl-carbamate (EC)- induced LC. Put plainly: In-vivo antineoplastic study, EC-induced lung carcinoma (weight, lipid profile, oxidative markers, histopathology, SEM). Further details: species or system albino Wistar rats. As to conditions: EC-induced LC rats; for Histopathological analysis of lung tissue (H&E): 10 mg/kg for 15 days; for Weight variation (change in body weight): 10 mg/kg for 15 days (9B, 12B p.o.; 5-FU i.p.); for Serum lipid profile (TC, TG, LDL, VLDL, HDL) / Oxidative changes (SOD, GSH, ProC, TBARs): 10 mg/kg p.o. for 15 days; for Oxidative changes (SOD, GSH, ProC, TBARs): lung tissue homogenate. The protocol:
(§1) Six-week-old experimental male albino Wistar rats (100–120 g) were procured from the animal house facility of Babu Banarasi Das Northern India Institute of Technology Lucknow and approved by the Institutional Animal Ethical Committee (CPCSEA No. 809/PO/Re/S/03/CPCSEA) with approval no. BBDNIIT/IAEC/APR/2022/06. The animal welfare protocol and experiments were performed as per the CPCSEA guidelines for laboratory animals and ethics, Department of Animal Welfare, Government of India. They were randomly distributed into five groups of eight animals each. The experimental rats were acclimated under standard research laboratory conditions with free access to standard rat chow and water ad libitum. Group 1 (NC, normal control group): 0.25% CMC (2 mL/kg, p. o.), Group 2 (CC, carcinogen control/EC-exposed group): EC (0.375 mg/kg, four i.p. injections within a gap of three weeks between each dose over twelve weeks period), Group 3 (PC, positive control group): EC + 5-FU (10 mg/kg, i.p. for 15 days after EC induced LC), Group 4 (9B): EC + Compound 9B (10 mg/kg, p.o. for 15 days after EC induced LC), and Group 5 (12B): EC + Compound 12B (10 mg/kg, p.o. for 15 days after the induction of LC). At the end of the treatment, the animals were euthanized by cervical decapitation after anesthesia using a combination of diazepam and ketamine hydrochloride (5 mg/kg, and 100 mg/kg, i.m. respectively). The lung was excised immediately, rinsed in ice-cold saline, and stored at -80 °C for further study. Serum was collected and stored for further analysis.
Change in body weight (gm) was measured on the initial and final day of the experiment, and percent (%) weight gain/loss was calculated.
Serum total cholesterol (TC), triglycerides (TG), and high-density lipoprotein (HDL) levels were measured by using lipid profile kits (Agappe Diagnostic Ltd., Kerala, India). In brief, the assay was performed according to the manufacturer’s instructions. Low-density lipoprotein (LDL) and very-low-density lipoprotein (VLDL) levels were estimated and calculated using Friedewald’s formula [24].
Biochemical parameters such as protein carbonyl (PC), superoxide dismutase (SOD), glutathione (GSH), and thiobarbituric acid reactive substances (TBARs) were estimated in 10% lung tissue homogenate using our previously standardized laboratory protocols.
Histopathological studies were conducted to determine intracellular changes in lung tissue. Tissue samples were stained with H&E (haemotoxyline and eosin) using a methodology established previously at our laboratory for histological analysis and observed under an optical microscope (Steindroff N-120, 40X).
Lung tissue samples of 2–4 mm thickness were sectioned, and the samples were prepared by fixation, washing, post-fixation, and dehydration according to the standardized procedures of our laboratory. Finally, the samples were mounted on aluminium stubs with adhesive tape and examined for morphological changes using SEM (JEOL JSM-6490LV).

For the next series, the system named is albino Wistar rats. Put plainly: Acute toxicity study (OECD 423). The format is in vivo. Particulars: oral, 15 days, 5, 10, and 15 mg/kg; for Toxic effect: histology of lung, liver, kidney. How it is done:
It is necessary to investigate the safety and efficacy of the synthesized compounds in vivo, which was performed as per the guidelines of the Organization for Economic Cooperation and Development guidelines 423 (OECD 423). The synthesized compounds were orally administered at doses of 5, 10, and 15 mg/kg body weight to albino Wistar rats for 15 days (n = 5), and the animals were observed every day for any toxic signs at various doses. Morphological and oxidative stress parameters were used to determine dose-related toxicity.

Series [3] can be described thus: Pharmacokinetic study in rat plasma using HPLC. The class given is in vivo, albino Wistar rats. Particulars: 10 mg/kg p.o.; for AUC(0-inf) / Cmax / MRT / Tmax / half-life: Wistar, po; for AUC(0-inf) / Cmax / MRT / Tmax / half-life / AUMC: rat plasma. How it is done: 9B and 12B compounds were orally administered at 10 mg/kg (p.o. dose obtained from acute toxicity studies) to rats, and blood was collected from the latetal tail vein at 0.083, 0.25, 0.5, 1, 2, 4, 8, 12, 16, 24, and 48 h. After collection, blood was centrifuged and plasma was separated, which was kept at -20 °C for further HPLC determination. Chromatographic separations were performed using a Shimadzu Prominence-I LC-2030 Plus equipped with HPLC and a photodiode array (PDA) detector. The mobile phase consisted of a gradient elution of 2:8, water: methanol, and a continuous flow rate of 1 mL/min in an RP-C18 column (5.0 µ particle sizes, 4.6 mm internal diameter, and 250 mm length) with different λmax of 310 and 320 nm, respectively, at 40 °C throughout the experiment. The column was washed using an elution solvent (water: methanol = 50:50) after each run, and the final output was analyzed using WinNonlin version 1.5.3 software.

Series [4] relates to IL-2, IL-6, IL-10, and IL-1β. Nature of the series: Cytokine estimation (ELISA) in EC-induced LC rats. The class given is in vivo, albino Wistar rats. As to conditions: 10 mg/kg p.o. for 15 days, vs CC group. How it is done:
as §1, with “The lung was excised immediately, rinsed in ice-cold saline, and stored at -80 °C for further study. Serum was collected and stored for further analysis.” left out

For series [5], the system named is IL-6, STAT-3, Bax, Bcl-2, Cyt-C, Caspase-9, and Caspase-3. Nature of the series: Western blot analysis of lung samples of EC-induced LC rats. The format is in vivo, albino Wistar rats. Particulars: 10 mg/kg p.o. for 15 days; for Expression of IL-6, STAT-3, and Bcl-2 / Expression of caspases (Caspase-3 and Caspase-9): vs CC group. The protocol:
as §1
Protein expression levels of IL-6 (pro-inflammatory), STAT-3 (pro-inflammatory), Bax (pro-apoptotic), Bcl-2 (anti-apoptotic), Cyt-C (pro-apoptotic), Caspase-9, and Caspase-3 (pro-apoptotic/executor caspase) were assessed by immunoblotting. Proteins were electrophoresed on sodium dodecyl sulphate polyacrylamide gel (SDS-PAGE) and probed to detect molecules of interest in the mixture. The membrane was developed with enhanced chemiluminescence ECL, and images were obtained using Chemidoc XRS+ (Bio-rad).
In general terms: A western blot detects proteins with antibodies after separation by electrophoresis.

Setting [6] is: Homo sapiens, A549 cell line, unit inferred, read-out: GI50 value.

As for `COc1cccc2c1C(=O)c1c(O)c3c(c(O)c1C2=O)C[C@@](O)(C(=O)CO)C[C@@H]3O[C@H]1C[C@H](N)[C@H](O)[C@H](C)O1` [ADR, Adriamycin, reference compound], the “TGI (concentration of drug causing total inhibition of cell growth)” value in series [1] (A-549 cells, SRB assay) is under 10 µg/mL. Moreover, in series [1] (Homo sapiens, A549, A-549 cells, SRB assay, read-out: GI50 (concentration of drug causing 50% inhibition of cell growth)), the GI50 is under 10 µg/mL.

`O=c1[nH]cc(F)c(=O)[nH]1` [Compound 5-FU, 5-Fluorouracil, reference compound]: in series [2], the “Histopathological analysis of lung tissue (H&E)” value (from here on “Histopathological analysis”) is “histopathological recovery of lung tissue architectures” and the “Weight variation (change in body weight)” value is reported as 7.21 ± 1.75 gm.

Usually AUC(0-inf) stands for total exposure, with the tail of the curve extrapolated. Lower therefore signals low exposure. By Cmax is commonly meant the peak of the concentration-time curve. The term MRT denotes the average time that molecules of a dose stay in the body. As a reminder, the Tmax is the time at which the peak concentration occurs. One may read the half-life as how long it takes for the measured level to halve. Low readings indicate rapid decline, high ones slow decline. For the compound `COc1ccc2c(c1)CC1=C2N=C2SC=CN2C1c1cc(OC)c(OC)c(OC)c1` (stereo not drawn) [Compound 9B, 8-methoxy-5-(3,4,5-trimethoxyphenyl)-5,6-dihydroindeno[1,2-d]thiazolo[3,2-a]pyrimidine], in series [1] (Homo sapiens, A549, A-549 cells, SRB assay, read-out: LC50 (concentration of drug causing 50% cell kill)), the LC50 is over 80 µg/mL. In addition, the GI50 in series [1] (setting [6]) is under 20 µg/mL. In the series with albino Wistar rats, the “Antioxidant markers SOD, CAT, GSH, and TBARs values” is given as “no change”; the Toxic effect result is “no toxic effect”. In series [3], the AUC(0-inf) was 288 µg·h/mL, the Cmax is 30800 ± 1590 ng/mL, the MRT was determined as 10.6 ± 0.99 h and the Tmax amounted to 4 h. Moreover, in series [3], the half-life is 7.95 h and the AUMC was determined as 3028.82 µg.h^2/ mL. In addition, in series [2], the “Histopathological analysis” value is “histopathological recovery of lung tissue architectures”; the “Weight variation (change in body weight)” value worked out at 6.01 ± 1.08 gm; the “Serum lipid profile (TC, TG, LDL, VLDL, HDL)” value is on record as “restored the alteration of the lipid profile”; the “Oxidative changes (SOD, GSH, ProC, TBARs)” value was “restoring the altered levels of SOD, GSH, ProC, and TBARs”. In addition, the “Levels of cytokine IL-1β, IL-2, IL-6, and IL-10” value in series [4] is reported as “significantly decreased”. In addition, in series [5], the “Expression of IL-6, STAT-3, and Bcl-2” value is listed as “decreased”; the “Expression of caspases (Caspase-3 and Caspase-9)” value is “increased”.

Regarding `Clc1ccc(C2C3=C(N=C4SC=CN42)c2ccccc2C3)cc1` (stereo not drawn) [Compound 12B, 5-(4-chlorophenyl)-5,6-dihydroindeno[1,2-d]thiazolo[3,2-a]pyrimidine], in series [1] (setting [6]), the GI50 is under 10 µg/mL. In the series on albino Wistar rats, the “Antioxidant markers SOD, CAT, GSH, and TBARs values” was “no change”; the Toxic effect result is listed as “no toxic effect”. Moreover, in series [3], the AUC(0-inf) stood at 436 ± 8.59 µg·h/mL, the highest level (Cmax) was 40200 ± 2060 ng/mL, the MRT stood at 10.4 ± 1.08 h and the Tmax came to 4 h. Also, in series [3], the half-life was 11.5 h and the AUMC turned out to be 4557.60 µg.h^2/ mL. In addition, the “Biological availability (in words)” value in series [3] (rat, compared with 9B) is recorded as “good biological availability as compared to 9B”. In series [2], the “Histopathological analysis” value is given as “histopathological recovery of lung tissue architectures”; the “Weight variation (change in body weight)” value was determined as 17.52 ± 1.33 gm; the “Serum lipid profile (TC, TG, LDL, VLDL, HDL)” value was “restored the alteration of the lipid profile”; the “Oxidative changes (SOD, GSH, ProC, TBARs)” value was “restoring the altered levels of SOD, GSH, ProC, and TBARs”. In series [4], the “Levels of cytokine IL-1β, IL-2, IL-6, and IL-10” value was “significantly decreased”. Also, the “Expression of Bax and Cyt-C” value in series [5] (12B compared with 9B) was “higher expression with 12B treatment than with 9B treatment”. In series [5], the “Expression of IL-6, STAT-3, and Bcl-2” value was “decreased”; the “Expression of caspases (Caspase-3 and Caspase-9)” value is on record as “increased”.
